Broadly, the IC50 is the concentration at which inhibition is half-maximal.

A short description of this test: Inhibition of TNFalpha in mouse L929 cells exposed to compound incubated for 1 hr with mouse TNFalpha by luminescence based assay.

`CC1(C)C(=O)c2ccc(-c3cnc(N4CCN5C(=O)NC[C@@H]5C4)nc3)cc2N1Cc1cccnc1C#N` came in with an IC50 of 99 nM.

The molecule `CN1CCN(Cc2ccc(-c3c[nH]c4ccncc34)c(OCCc3ccc(-c4cccc5ccncc45)cc3)c2)CC1` showed an IC50 of 128 nM.

Molecule `C[C@@H]1CN(c2ncc(-c3ccc4c(c3)N(Cc3ccccc3OC(F)F)C(C)(C)C4=O)cn2)CCN1C(=O)CO` returned an IC50 of 146 nM.

On to `C[C@@H]1CN(c2ncc(-c3ccc4c(c3)N(Cc3cccnc3C#N)C(C)(C)C4=O)cn2)CCN1C(=O)CO`, for which the midpoint of inhibition, the IC50, lay at 119 nM.
